From patent publication US6800637B2, “Antidepressant indolealkyl derivatives of heterocycle-fused benzodioxan methylamines” (Wyeth, priority 2002, dated 2004) come the findings set out here.

pIC50, pKi: −log10 of the molar value. Like-named read-outs stand apart in the source and are kept apart here.

The target in one assay is T1, serotonin transporter (Rattus norvegicus, UniProt P31652).
T1 construct: displace ^3H-paroxetine from male rat frontal cortical membranes; from tissue; host or cells: male rat frontal cortex membranes
The assay is described as follows: Displacement of 3H-paroxetine from male rat frontal cortical membranes (serotonin transporter affinity). Type of assay: binding. The conditions noted are these: read-out: 5-HT Transporter Affinity KI.

A further assay deals with T2, human 5-HT1A receptors (Homo sapiens, UniProt P08908).
T2 construct: expressed in transfected cells; host or cells: CHO cells
T2 sequence (P08908 1-422): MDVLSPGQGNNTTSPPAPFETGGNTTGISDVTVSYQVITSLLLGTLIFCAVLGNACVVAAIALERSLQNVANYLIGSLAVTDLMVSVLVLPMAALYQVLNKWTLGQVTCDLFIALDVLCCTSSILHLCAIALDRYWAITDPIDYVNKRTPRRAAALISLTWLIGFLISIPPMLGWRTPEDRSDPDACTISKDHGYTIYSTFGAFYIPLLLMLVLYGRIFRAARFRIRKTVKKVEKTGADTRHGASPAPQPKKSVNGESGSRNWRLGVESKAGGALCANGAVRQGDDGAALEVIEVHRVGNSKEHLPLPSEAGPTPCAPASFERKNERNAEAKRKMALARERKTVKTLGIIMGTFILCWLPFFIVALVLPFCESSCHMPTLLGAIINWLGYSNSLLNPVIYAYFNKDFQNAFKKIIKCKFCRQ
Kind of assay: Displacement of [3H] 8-OHDPAT from 5-HT1A receptor, CHO cells stably transfected with human 5-HT1A receptors. Type of assay: binding. The conditions noted are these: CHO cells with human 5-HT1A receptors, read-out: 5-HT1A Receptor Affinity KI. From the text:
High affinity for the serotonin 5-HT1A receptor was established by testing the claimed compound's ability to displace [^3H] 8-OHDPAT (dipropylaminotetralin) from the 5-HT1A serotonin receptor following a modification of the procedure of Hall et al., J. Neurochem. 44, 1685 (1985) which utilizes CHO cells stably transfected with human 5-HT1A receptors.
(Loss of bound radioactivity is the signal in a displacement assay; it reports binding, not function.)

The target of assay [1] is T3, cloned human 5HT1A receptors (Homo sapiens, UniProt P08908).
T3 construct: expressed in transfected cells
T3 sequence (P08908 1-422): T2 sequence (P08908 1-422)
Kind of assay: 35S-GTPγS binding assay, membranes containing cloned human 5HT1A receptors. Type of assay: biochemical. To be noted: for pIC50: antagonist potency, reversal of the effects of the standard agonist 8-OHDPAT, read-out: 5-HT1A Function IC50. The procedure:
Antagonist activity at 5-HT1A receptors was established by using a ^35S-GTPγS binding assay similar to that used by Lazareno and Birdsall (Br. J. Pharmacol. 109: 1120, 1993), in which the test compound's ability to affect the binding of ^35S-GTPγS to membranes containing cloned human 5HT1A receptors was determined. Agonists produce an increase in binding whereas antagonists produce no increase but rather reverse the effects of the standard agonist 8-OHDPAT. The test compound's maximum inhibitory effect is represented as the Imax, while its potency is defined by the IC50.

[2] abbreviates: maximum inhibitory effect, read-out: 5-HT1A Function (Imax).

T1 sequence (P31652 whole entry): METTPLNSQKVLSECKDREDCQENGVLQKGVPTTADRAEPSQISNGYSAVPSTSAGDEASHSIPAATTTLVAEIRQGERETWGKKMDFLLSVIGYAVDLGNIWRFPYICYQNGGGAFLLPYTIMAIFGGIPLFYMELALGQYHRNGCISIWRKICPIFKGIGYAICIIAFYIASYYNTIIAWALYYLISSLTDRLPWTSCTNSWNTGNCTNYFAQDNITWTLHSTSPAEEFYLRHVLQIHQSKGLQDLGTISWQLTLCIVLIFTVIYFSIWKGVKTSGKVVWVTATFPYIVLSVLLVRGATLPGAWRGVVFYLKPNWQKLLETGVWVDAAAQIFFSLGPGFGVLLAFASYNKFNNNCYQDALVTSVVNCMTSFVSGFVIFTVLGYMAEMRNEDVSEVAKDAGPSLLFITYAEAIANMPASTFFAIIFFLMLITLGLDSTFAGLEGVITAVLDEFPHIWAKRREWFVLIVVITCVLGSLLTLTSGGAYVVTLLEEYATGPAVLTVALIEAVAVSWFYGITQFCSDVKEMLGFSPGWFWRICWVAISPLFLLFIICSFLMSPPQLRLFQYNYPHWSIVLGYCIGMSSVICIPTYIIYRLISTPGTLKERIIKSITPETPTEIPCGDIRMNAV

Consider `Cc1ccc2c3c(ccc2n1)OCC(CN(C)CCCc1cn(C)c2ccc(F)cc12)O3` (stereo not shown) [Example 42, [3-(5-Fluoro-1-methyl-1H-indol-3-yl)-propyl]-methyl-(8-methyl-2,3-dihydro-[1,4]dioxino[2,3-f]quinolin-2-ylmethyl)-amine], for which the pKi on serotonin transporter was 8.56; at human 5-HT1A receptors it was 7.44.

For `CCN(CCCc1c[nH]c2ccc(F)cc12)C[C@H]1COc2ccc3nc(C)oc3c2O1` [Example 36, Ethyl-[3-(5-fluoro-1H-indol-3-yl)-propyl]-(2-methyl-7,8-dihydro-[1,4]dioxino[2,3-g][1,3]benzoxazol-8-ylmethyl)-amine], the pIC50 in assay [1] was 6.31. Also, in assay [1] (setting [2]), the Emax was 91.9%. The pKi is 8.72 on serotonin transporter and 7.79 at human 5-HT1A receptors.

Regarding `COc1cccc2c(CCCNCC3COc4ccc5nc(C)ccc5c4O3)coc12` (stereo not shown) [Example 19, N-[3-(7-Methoxy-1-benzofuran-3-yl)propyl]-N-(8-methyl-2,3-dihydro-[1,4]dioxino[2,3-f]quinolin-2-ylmethyl)amine], in assay [1], the negative logarithm of the IC50 (pIC50) was 7.30. In addition, the Emax in assay [1] (setting [2]) came to 95.4%. Besides, the pKi at serotonin transporter is 7.84; on human 5-HT1A receptors, 9.70.

Take `Cc1ccc2c3c(ccc2n1)OCC(CN(C)CCCn1ccc2ccc(F)cc21)O3` (stereo not shown) [Example 34, [3-(6-Fluoro-indol-1-yl)-propyl]-methyl-(8-methyl-2,3-dihydro-[1,4]dioxino[2,3-f]quinolin-2-ylmethyl)-amine]: the pIC50 in assay [1] is 6.71. For the same compound, in assay [1] (setting [2]), the Emax turned out to be 100%. Besides, the pKi is 8.09 on serotonin transporter and 9.54 on human 5-HT1A receptors.

For the compound `Cc1ccc2c3c(ccc2n1)OCC(CNCCCc1cn(C)c2ccc(F)cc12)O3` (stereo not shown) [Example 12, N-[3-(5-Fluoro-1-methyl-1H-indol-3-yl)propyl]-N-(8-methyl-2,3-dihydro-[1,4]dioxino[2,3-f]quinolin-2-ylmethyl)amine], the pIC50 in assay [1] was 6.86. Moreover, in assay [1] (setting [2]), the Emax is 81.6%. The pKi on serotonin transporter was 7.89; at human 5-HT1A receptors it was 8.81.

Take `Cc1ccc2c3c(ccc2n1)OCC(CNCCCc1c[nH]c2ccc(C#N)cc12)O3` (stereo not shown) [Example 29, 3-{3-[(8-Methyl-2,3-dihydro-[1,4]dioxino[2,3-f]quinolin-2-ylmethyl)-amino]-propyl}-1H-indole-5-carbonitrile]: the pIC50 in assay [1] was 7.25. The Emax in assay [1] (setting [2]) turned out to be 94%. Further, the figures for the pKi at serotonin transporter and at human 5-HT1A receptors were 9.05 and 8.79, respectively.

Consider `Cc1ccc2c3c(ccc2n1)OCC(CN(C)CCCCn1ccc2ccc(F)cc21)O3` (stereo not shown) [Example 47, [4-(6-Fluoro-indol-1-yl)-butyl]-methyl-(8-methyl-2,3-dihydro-[1,4]dioxino[2,3-f]quinolin-2-ylmethyl)-amine], for which the pIC50 in assay [1] was 6.72. The Emax in assay [1] (setting [2]) came out at 75.2%. Moreover, the pKi at serotonin transporter was 9.00; on human 5-HT1A receptors it was 8.35.

Consider `Cc1ccc2c3c(ccc2n1)OC[C@H](CNCCCc1csc2ccc(F)cc12)O3` [Example 51, N-[3-(5-Fluoro-1-benzothien-3-yl)propyl]-N-{[(2S)-8-methyl-2,3-dihydro[1,4]dioxino[2,3-f]quinolin-2-yl]methyl}amine], for which, in assay [1], the pIC50 was 7.72. The Emax in assay [1] (setting [2]) is 82%. Also, the figures for the pKi at serotonin transporter and on human 5-HT1A receptors were 8.63 and 9.11, respectively.

With `Cc1ccc2c3c(ccc2n1)OCC(CNC(C)CCc1c[nH]c2ccc(F)cc12)O3` (single isomer, unassigned; isomer a) [Example 11 Isomer A], the negative logarithm of the IC50 (pIC50) in assay [1] is 7.56. This compound also came in with a 5-HT1A Function (Imax) in assay [1] (maximum inhibitory effect) of 78.3%. Further, the pKi at serotonin transporter is 8.79; at human 5-HT1A receptors it was 8.77.

As for `Cc1ccc2c3c(ccc2n1)OCC(CN(C)CCCc1c[nH]c2c(F)cc(F)cc12)O3` (stereo not shown) [Example 16, N-[3-(5,7-Difluoro-1H-indol-3-yl)propyl]-N-methyl-N-(8-methyl-2,3-dihydro-[1,4]dioxino[2,3-f]quinolin-2-ylmethyl)amine], the pIC50 in assay [1] was 6.90. The Emax in assay [1] (setting [2]) was 100%. Besides, the negative logarithm of the Ki (pKi) is 8.74 on serotonin transporter and 8.60 on human 5-HT1A receptors.

Turning to `Cc1ccc2c3c(ccc2n1)OCC(CN(C)CCCCc1c[nH]c2ccc(C#N)cc12)O3` (stereo not shown) [Example 41, 3-{4-[Methyl-(8-methyl-2,3-dihydro-[1,4]dioxino[2,3-f]quinolin-2-ylmethyl)-amino]-butyl}-1H-indole-5-carbonitrile], the pKi is 9.62 on serotonin transporter and 7.68 at human 5-HT1A receptors.

Turning to `Cc1ccc2c3c(ccc2n1)OCC(CN(C)CCCc1c[nH]c2ccc(F)cc12)O3` (stereo not shown) [Example 7, N-[3-(5-Fluoro-1H-indol-3-yl)propyl]-N-methyl-N-(8-methyl-2,3-dihydro-[1,4]dioxino[2,3-f]quinolin-2-ylmethyl)amine], in assay [1], the pIC50 is 7.13. The Emax in assay [1] (setting [2]) came out at 100%. In addition, the pKi is 9.42 on serotonin transporter and 8.46 on human 5-HT1A receptors.

`Cc1nc2ccc3c(c2o1)O[C@@H](CNCCCc1c[nH]c2ccc(F)cc12)CO3` [Example 23, N-[3-(5-Fluoro-1H-indol-3-yl)propyl]-N-(2-methyl-7,8-dihydro-[1,4]dioxino[2,3-g][1,3]benzoxazol-8-ylmethyl)amine]: the pIC50 in assay [1] is 7.71. Also, in assay [1] (setting [2]), the Emax stood at 85.8%. The pKi at serotonin transporter was 8.73; on human 5-HT1A receptors it was 9.15.

For `CCN(CCCc1c[nH]c2ccc(F)cc12)CC1COc2ccc3nc(C)ccc3c2O1` (stereo not shown) [Example 25, N-Ethyl-N-[3-(5-Fluoro-1H-indol-3-yl)propyl]-N-(8-methyl-2,3-dihydro-[1,4]dioxino[2,3-f]quinolin-2-ylmethyl)amine], in assay [1], the pIC50 was 7.36. In assay [1] (setting [2]), the Emax stood at 94%. Further, the pKi at serotonin transporter was 9.22; on human 5-HT1A receptors, 8.26.

On to `Cc1ccc2c3c(ccc2n1)OCC(CNCCCn1ccc2c(F)cccc21)O3` (stereo not shown) [Example 46, [3-(4-Fluoro-indol-1-yl)-propyl]-(8-methyl-2,3-dihydro-[1,4]dioxino[2,3-f]quinolin-2-ylmethyl)-amine], for which the pIC50 in assay [1] was 7.50. Moreover, in assay [1] (setting [2]), the Emax came to 85.6%. Moreover, the pKi on serotonin transporter was 8.17; on human 5-HT1A receptors, 10.30.

In the case of `Cc1ccc2c3c(ccc2n1)OCC(CNCCCCc1c[nH]c2ccc(F)cc12)O3` (stereo not shown) [Example 10, N-[4-(5-Fluoro-1H-indol-3-yl)butyl]-N-(8-methyl-2,3-dihydro-[1,4]dioxino[2,3-f]quinolin-2-ylmethyl)amine], the negative-log IC50 (pIC50) in assay [1] was 7.15. Also, the Emax in assay [1] (setting [2]) was determined as 61.5%. Moreover, the pKi on serotonin transporter was 8.89; at human 5-HT1A receptors it was 8.75.

On to `Cc1ccc2c3c(ccc2n1)OC[C@H](CNCCCc1csc2ccc(Cl)cc12)O3` [Example 50], for which the pIC50 in assay [1] is 7.16. The Emax in assay [1] (setting [2]) amounted to 50%. Further, the pKi at serotonin transporter was 8.01; on human 5-HT1A receptors, 9.35.

Turning to `Cc1ccc2c3c(ccc2n1)OCC(CNCCCc1c[nH]c2ccccc12)O3` (stereo not shown) [Example 6, N-[3-(1H-Indol-3-yl)propyl]-N-(8-methyl-2,3-dihydro-[1,4]dioxino[2,3-f]quinolin-2-ylmethyl)amine], the pIC50 in assay [1] was 7.50. In assay [1] (setting [2]), the Emax is 86.6%. The pKi on serotonin transporter was 8.45; on human 5-HT1A receptors, 9.41.

For the compound `Cc1ccc2c3c(ccc2n1)OCC(CN(C)CCCc1cn(C)c2ccc(C#N)cc12)O3` (stereo not shown) [Example 40, 1-Methyl-3-{3-[methyl-(8-methyl-2,3-dihydro-[1,4]dioxino[2,3-f]quinolin-2-ylmethyl)-amino]-propyl}-1H-indole-5-carbonitrile], the pIC50 in assay [1] is 5.70. For the same compound, the Emax in assay [1] (setting [2]) stood at 100%. Besides, the values for the pKi at serotonin transporter and at human 5-HT1A receptors were 8.15 and 7.75, respectively.

Consider `Cc1ccc2c3c(ccc2n1)OCC(CNCCCCc1coc2ccccc12)O3` (stereo not shown) [Example 28, N-[4-(1-Benzofuran-3-yl)butyl]-N-(8-methyl-2,3-dihydro-[1,4]dioxino[2,3-f]quinolin-2-ylmethyl)amine], for which the pKi was 8.26 on serotonin transporter and 9.55 at human 5-HT1A receptors.

In the case of `Cc1ccc2c3c(ccc2n1)OCC(CNC(C)CCc1c[nH]c2ccc(F)cc12)O3` (single isomer, unassigned; isomer b) [Example 11 Isomer B], the figures for the pKi on serotonin transporter and at human 5-HT1A receptors were 9.37 and 8.33, respectively.

On to `CCN(CCCCc1coc2ccccc12)C[C@H]1COc2ccc3nc(C)ccc3c2O1` [Example 52, N-[4-(1-Benzofuran-3-yl)butyl]-N-ethyl-N-{[(2S)-8-methyl-2,3-dihydro[1,4]dioxino[2,3-f]quinolin-2-yl]methyl}amine], for which, in assay [1] (given as EC50, read-out: 5-HT1A Function EC50), the EC50 worked out at 526 nM. Also, the Emax in assay [1] (given as Emax, read-out: 5-HT1A Function Emax) was found to be 97%. Besides, the pKi at human 5-HT1A receptors is 8.68.

One may read the pKi as −log10 of the Ki, conventionally taken in molar units. For orientation: pIC50 means the negative decadic logarithm of the IC50, by convention in mol/L. By EC50 is commonly meant the concentration that produces a half-maximal response.
